Laboratory results from the supplement of paper PMC10307832.

Key:
Assay in all cases: relative viability (nuclei count vs DMSO), 5 days (fraction); higher = more cells survive
Seliciclib + Crizotinib = compound: CC[C@H](CO)Nc1nc(NCc2ccccc2)c2ncn(C(C)C)c2n1 [Seliciclib] + C[C@@H](Oc1cc(-c2cnn(C3CCNCC3)c2)cnc1N)c1c(Cl)ccc(F)c1Cl [Crizotinib] (partner 1 µM)
Method in brief: (§1)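 Relative viability is defined as nuclei in treated wells over nuclei in vehicle wells. Duplicate plates were run and medians reported. Lung cancer cell lines in 1536-well plates were dosed by pin tool one day after seeding, with one drug or with a fixed anchor-drug dose plus five library-drug doses (not always all listed) in √10 steps, and nuclei were counted after 5 days.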

Seliciclib + Vorinostat = compound: CC[C@H](CO)Nc1nc(NCc2ccccc2)c2ncn(C(C)C)c2n1 [Seliciclib] + O=C(CCCCCCC(=O)Nc1ccccc1)NO [Vorinostat] (partner 1 µM)
Method in brief: as §1

Seliciclib + Dasatinib = compound: CC[C@H](CO)Nc1nc(NCc2ccccc2)c2ncn(C(C)C)c2n1 [Seliciclib] + Cc1nc(Nc2ncc(C(=O)Nc3c(C)cccc3Cl)s2)cc(N2CCN(CCO)CC2)n1 [Dasatinib] (partner 0.075 µM)
Method in brief: as §1

Seliciclib + Pictilisib = compound: CC[C@H](CO)Nc1nc(NCc2ccccc2)c2ncn(C(C)C)c2n1 [Seliciclib] + CS(=O)(=O)N1CCN(Cc2cc3nc(-c4cccc5[nH]ncc45)nc(N4CCOCC4)c3s2)CC1 [Pictilisib] (partner 1 µM)
Method in brief: as §1

Cell Line | relative viability (Seliciclib + Crizotinib; first compound 0.08 µM) | relative viability (Seliciclib + Crizotinib; first compound 0.253 µM) | relative viability (Seliciclib + Crizotinib; first compound 0.8 µM) | relative viability (Seliciclib + Crizotinib; first compound 2.53 µM) | relative viability (Seliciclib + Crizotinib; first compound 8 µM) | relative viability (Seliciclib + Vorinostat; first compound 0.253 µM) | relative viability (Seliciclib + Vorinostat; first compound 0.8 µM) | relative viability (Seliciclib + Vorinostat; first compound 2.53 µM) | relative viability (Seliciclib + Vorinostat; first compound 8 µM) | relative viability (Seliciclib + Dasatinib; first compound 0.08 µM) | relative viability (Seliciclib + Dasatinib; first compound 0.253 µM) | relative viability (Seliciclib + Dasatinib; first compound 0.8 µM) | relative viability (Seliciclib + Dasatinib; first compound 2.53 µM) | relative viability (Seliciclib + Dasatinib; first compound 8 µM) | relative viability (Seliciclib + Pictilisib; first compound 0.08 µM) | relative viability (Seliciclib + Pictilisib; first compound 0.253 µM) | relative viability (Seliciclib + Pictilisib; first compound 0.8 µM) | relative viability (Seliciclib + Pictilisib; first compound 2.53 µM) | relative viability (Seliciclib + Pictilisib; first compound 8 µM) | relative viability (Seliciclib + Vorinostat; first compound 0.08 µM)
LOU-NH91 | 0.721 | 0.743 | 0.678 | 0.673 | 0.685 | 0.863 | 0.803 | 0.778 | 0.613 | 0.493 | 0.515 | 0.535 | 0.413 | 0.427 | 0.49 | 0.573 | 0.495 | 0.484 | 0.468 | 
LU99A | 0.477 | 0.544 | 0.52 | 0.422 | 0.4 | 0.383 | 0.458 | 0.383 | 0.455 | 0.611 | 0.521 | 0.588 | 0.262 | 0.507 | 0.349 | 0.301 | 0.374 | 0.229 | 0.284 | 0.538
LXF-289 | 0.82 | 0.871 | 0.779 | 0.835 | 0.638 | 0.824 | 0.671 | 0.582 | 0.457 | 0.245 | 0.202 | 0.248 | 0.128 | 0.221 | 0.779 | 0.86 | 0.701 | 0.595 | 0.724 | 0.735
NCI-H522 |  |  |  |  |  | 0.84 | 1.01 | 0.881 | 0.744 | 1.06 | 0.827 | 1.05 | 0.82 | 0.834 |  |  |  |  |  | 0.854
NCI-H1299 | 0.983 | 1.07 | 0.935 | 0.993 | 0.943 |  |  |  |  |  |  |  |  |  | 0.792 | 0.765 | 0.72 | 0.841 | 0.656 | 
NCI-H1395 |  |  |  |  |  | 0.597 | 0.702 |  | 0.631 | 0.464 | 0.406 | 0.428 | 0.361 | 0.368 | 0.6 | 0.757 | 0.641 | 0.535 | 0.649 | 0.83
NCI-H1563 | 0.832 | 0.73 | 0.889 | 0.899 | 0.836 |  |  |  |  | 0.536 | 0.525 | 0.503 | 0.416 | 0.428 | 0.649 | 0.621 | 0.681 | 0.567 | 0.691 | 
NCI-H1648 |  |  |  |  |  | 0.909 | 0.417 | 0.365 | 0.373 |  |  |  |  |  |  |  |  |  |  | 0.519
NCI-H1703 | 0.643 | 0.609 | 0.563 | 0.635 | 0.556 |  |  |  |  |  |  |  |  |  | 0.252 | 0.234 | 0.26 | 0.225 | 0.241 | 
NCI-H1792 | 0.837 | 1.01 | 0.82 | 0.873 | 0.919 |  |  |  |  | 0.754 | 0.788 | 0.766 |  | 0.743 | 0.233 | 0.313 | 0.273 | 0.285 | 0.274 | 
NCI-H1793 |  |  |  |  |  | 0.718 | 0.59 | 0.716 | 0.439 | 0.33 | 0.323 | 0.414 | 0.37 | 0.482 | 0.282 | 0.339 | 0.317 | 0.32 | 0.294 | 0.707
NCI-H2342 |  |  |  |  |  | 0.753 | 0.706 | 0.663 | 0.705 | 0.328 | 0.336 | 0.313 | 0.301 | 0.319 |  |  |  |  |  | 0.792
SW 900 |  |  |  |  |  | 0.701 | 0.484 | 0.467 | 0.35 | 0.541 | 0.593 | 0.661 | 0.397 | 0.559 |  |  |  |  |  | 0.53
